Series [1] deals with P-ERK in A375 cells expressing V600E mutated BRAF. The experiment in a line: cells. The class given is cell-based. The following applies: Homo sapiens, A-375, 1 h, read-out: pERK IC50 (nM) A375. The source says: DMEM no-phenol red medium supplemented with L-glutamine was purchased from (Thermo Fisher Scientific). Fetal bovine serum (FBS) was purchased from VWR. Advanced ERK phospho-T202/Y204 kit—10,000 tests was purchased from Cisbio cat #64AERPEH. A375 and HCT116 cells were originally obtained from ATCC and banked by the Roche repository.
(§1) A375 is a cellular cancer model expressing V600E mutated BRAF and HCT116 a cellular cancer model expressing WT BRAF. […] ERK 1,2 phosphorylation (terminal member of the phosphorylation cascade of the MAPK pathway) is hereafter reported as main readout for the activation status of the MAPK pathway. Prior to the assay, A375 and HCT116 cell lines are maintained in DMEM no-phenol red medium supplemented with 10% fetal bovine serum (FBS). […] Briefly, 8000 cells/well in 12 μl media/well are plated in the 384-well plate and left overnight in the incubator (at 37° C. with 5% CO2-humidified atmosphere), the following day the plate is treated in duplicate with test compounds, dabrafenib and PLX8394 (the latter two as controls) at the following final drug concentrations: 10 μM-3 μM-1 μM all wells are subjected to DMSO normalization and drug incubation occurs for 1 hour. Then, 4 μl of a 4× lysis buffer supplied with the kit are added to the wells, the plate is then centrifuged for 30 second (300 rcf) and incubated on a plate shaker for 1 h at RT.
At the end of the incubation 4 μL/well of advanced P-ERK antibody solution (prepared according to manufacturer's instruction) followed by 4 μL/well of criptate P-ERK antibody solution (prepared according to manufacturer's instruction) (Cisbio cat #64AERPEH) are added to test wells. […]
(§2) The obtained fluorescence values are processed according to the formula Ratio=[…]*10000 then the average of the ratio on the blank is subtracted to all values.
Mean of the normalized points are fitted with sigmoidal curve and IC50 determined.

Series [2] relates to P-ERK in HCT116 cells expressing WT BRAF. The class given is cell-based.
Source text: DMEM no-phenol red medium supplemented with L-glutamine was purchased from (Thermo Fisher Scientific). Fetal bovine serum (FBS) was purchased from VWR. Advanced ERK phospho-T202/Y204 kit—10,000 tests was purchased from Cisbio cat #64AERPEH. A375 and HCT116 cells were originally obtained from ATCC and banked by the Roche repository. 384-well microplates were purchased from Greiner Bio-One, 384-well, (With Lid, HiBase, Low volume cat 784-080).
as §1
At the end of the incubation 4 μL/well of advanced P-ERK antibody solution (prepared according to manufacturer's instruction) followed by 4 μL/well of criptate P-ERK antibody solution (prepared according to manufacturer's instruction) (Cisbio cat #64AERPEH) are added to test wells.
In order to allow proper data normalization control wells non drug treated reported in the following table are always included in each plate (according to manufacturer's instruction):
The plate is then centrifuged at 300 rcf for 30 second, sealed to prevent evaporation and incubated overnight in the dark at room temperature.
The plate is then analyzed and fluorescence emission value collected through a Pherastast FSX (BMG Labtech) apparatus at […].
as §2
Data are normalized in the case of HCT116 cells (BRAF activation,) considering the average of the ratio (blank subtracted) derived by DMSO only treated cells as 0% and by considering the average of the ratio (blank subtracted) derived by dabrafenib treated cells at the concentration which provides the highest signal as 100%. Individual points are fitted with either sigmoidal or bell shape curves, and the percentage of activation compared to maximum dabrafenib-mediated activation is determined. The EC50 is the concentration at which activation equal to 50% of the maximum achieved by dabrafenib is obtained.
The Percentage of Maximum paradox inducing effect from dabrafenib is determined by evaluating the percentage at which the test compound induce its maximum P-ERK signal as percentage of the highest signal produced by dabrafenib within the dose range tested.

The conditions of series [3]: literature; cited from earlier work.
A short description of series [4]: BCS (biopharmaceutics classification system). The format is physicochemical.
Series [5] concerns A375 BRAF V600E cancer cells constituvely expressing luciferase. In words: Intracranial implanted A375-Luc. To be noted: daily oral 1, 5 and 20 mg/kg for 2 weeks from day 7; immunocompromised mice. The class given is in vivo. The method, then: A375 BRAF V600E cancer cells constituvely expressing luciferase were injected intracranially in immunocompromised mice. Treatment with compound Example 1 was initiated at day 7 from the intracranial injection and continued for 2 weeks. The different groups were subject to daily oral administration of 1 mg/kg, 5 mg/kg and 20 mg/kg of Example 1 respectively.

Series [6] has as its system P-gp. In words: P-gp apical efflux ratio, LLC-PK1 cell line transfected with MDR1. The class given is in vitro ADME.
Series [7] can be described thus: CSF Kp,uu measurement for brain penetration, mouse. To be noted: Single oral dose 10 mg/kg. The class given is in vivo. The method, then:
(§3) The CSF Kp,uu is the ratio of the concentration in cerebrospinal fluid (CSF): unbound plasma exposure and Kp,uu values≥1 indicate good brain penetration. For compound Example 1, single oral dose studies in mouse and rat, sequential plasma and CSF concentrations (up to 24 h post dose) were measured by LC-MS/MS to calculate the CSF Kp,uu. For multiple oral dose studies in rat and minipig the plasma and CSF concentrations approximating Tmax (3 h post last dose) were measured by LC-MS/MS and used to calculate the CSF Kp,uu.

Series [8] in a line: CSF Kp,uu measurement for brain penetration, minipig. The format is in vivo. The following applies: Multiple oral dosing @ 300 mg/kg/day (2-week DRF). On the procedure:
as §3

Series [9] in a line: Plasma protein binding. The format is in vitro ADME. The following applies: mouse, rat, minipig, monkey, human.
Series [10] in a line: CSF Kp,uu measurement for brain penetration, rat. The format is in vivo. The method, then: as §3
The mark [11] stands for this setting: read-out: p-ERK EC50 (nM) conc. (nM) at which the compound induces P-ERK activation of 50% of that induced by dabrafenib (Positive control paradox inducer) HCT-116; HCT-116 cells; not applicable if activation does not reach 50% of dabrafenib maximum.
[12] abbreviates: HCT-116 cells; maximum P-ERK signal as percentage of highest dabrafenib signal.

Read-outs that look alike come from different tables or passages of the source.

The values below come from patent US20240174621A1, “METHYLQUINAZOLINONE DERIVATIVES” (Hoffmann-La Roche Inc., priority 2019, published 2024).

In the case of `CCCS(=O)(=O)Nc1ccc(F)c(Oc2ccc3ncn(C)c(=O)c3c2)c1C#N` [AR-25], in series [1], the concentration for half-maximal inhibition (IC50) was 1.1 nM. Moreover, in series [2] (setting [11]), the EC50 came to 9.6 nM.
Regarding `CN(C)S(=O)(=O)Nc1ccc(Cl)c(Oc2ccc3ncn(C)c(=O)c3c2)c1C#N` [AR-30], the IC50 in series [1] is 406 nM. Also, the “Percentage of Maximum paradox inducing effect from dabrafenib” value (“Percentage” below) in [2] (setting [12]) came to 59%. The EC50 in series [2] (setting [11]) is over 1000 nM.
Turning to `Cn1cnc2ccc(Oc3c(Cl)ccc(NS(=O)(=O)N4CCCC4)c3C#N)cc2c1=O` [AR-31], the IC50 in series [1] is 311 nM. Besides, the “Percentage” value in [2] (setting [12]) was determined as 51.2%. The half-maximal effective concentration (EC50) in [2] (HCT-116 cells; not applicable if activation does not reach 50% of dabrafenib maximum; read-out: p-ERK EC50 (nM) conc. (nM) at which the compound induces P-ERK activation of 50% of that induced by dabrafenib (Positive control paradox inducer) HCT-116) is over 1000 nM.
In the case of `CC(C)(C)c1nc(-c2cccc(NS(=O)(=O)c3c(F)cccc3F)c2F)c(-c2ccnc(N)n2)s1` [Dabrafenib], the Brain permeability result in series [3] is “very poor brain permerability”.
For the compound `COC(=O)N[C@@H](C)CNc1nccc(-c2cn(C(C)C)nc2-c2cc(Cl)cc(NS(C)(=O)=O)c2F)n1` [Encorafenib], the Brain permeability result in [3] is “very poor brain permerability”.
Consider `Cn1cnc2ccc(Oc3c(F)ccc(NS(=O)(=O)N4CC[C@@H](F)C4)c3C#N)cc2c1=O` [Example 1, (3R)-N-[2-cyano-4-fluoro-3-(3-methyl-4-oxo-quinazolin-6-yl)oxy-phenyl]-3-fluoro-pyrrolidine-1-sulfonamide], for which, in series [4], the “BCS (biopharmaceutics classific. system) Class” value stood at 2. For the same compound, the “Antitumor activity, intracranial A375-Luc” value in series [5] is given as “dose dependent antitumor activity”. In series [6] (LLC-PK1 transfected with MDR1), the “P-gp Apical Efflux ratio, Class” value is “Low”. Moreover, the efflux ratio in [6] (human, LLC-PK1 transfected with MDR1, presence/absence of P-gp inhibitor) came out at 1.5. Further, the “Mouse CSF Kp,uu, Class” value in series [7] is recorded as “High”. Further, the Kp uu in [7] (mouse, CSF / unbound plasma) is at least 1; in [10] (rat, CSF / unbound plasma, Single oral dose 20 mg/kg), at least 1. In series [8], the “Minipig CSF Kp,uu, Class” value is reported as “High”. Moreover, the Kp uu at 3 h in series [8] (minipig, CSF / unbound plasma, 3 h post last dose) was at least 1; in [10] (rat, CSF / unbound plasma, Multiple oral dosing @ 300 mg/kg/day (2-week DRF), 3 h post last dose), at least 1. Moreover, the “Plasma protein binding, Class” value in series [9] is on record as “Very high”. In series [9] (plasma), this compound gave a fraction unbound of at most 0.01. Besides, the “Rat CSF Kp,uu, Class” value in [10] (Multiple oral dosing @ 300 mg/kg/day (2-week DRF)) and in series [10] (Single oral dose 20 mg/kg) was “High” each time. Further, the “Temporal relationship of plasma and CSF (distribution into CSF)” value in [10] (single dose rat PK study, up to 24 h post dose) was “(PK) study and indicated fast and extensive distribution into CSF”.
As for `Cn1cnc2ccc(Oc3c(F)ccc(NS(=O)(=O)N4CC[C@H](F)C4)c3C#N)cc2c1=O` [Example 2, (3S)-N-[2-cyano-4-fluoro-3-(3-methyl-4-oxo-quinazolin-6-yl)oxy-phenyl]-3-fluoro-pyrrolidine-1-sulfonamide], the “Percentage” value in series [2] (setting [12]) is given as 46.2%.
Take `CCCS(=O)(=O)Nc1ccc(F)c(C(=O)c2c[nH]c3ncc(-c4ccc(Cl)cc4)cc23)c1F` [Vemurafenib]: the Brain permeability entry in series [3] is reported as “very poor brain permerability”.
